These results are taken from US20210395651A1, “COMPOUNDS STABILIZING HYDROLASES IN LIQUIDS” (BASF SE, priority 2018, published 2021).

The target of this test is T1, Lipolase® 100L (Thermomyces lanuginosus, UniProt O59952).
T1 construct: purchased Sigma-Aldrich
T1 sequence (O59952 23-291): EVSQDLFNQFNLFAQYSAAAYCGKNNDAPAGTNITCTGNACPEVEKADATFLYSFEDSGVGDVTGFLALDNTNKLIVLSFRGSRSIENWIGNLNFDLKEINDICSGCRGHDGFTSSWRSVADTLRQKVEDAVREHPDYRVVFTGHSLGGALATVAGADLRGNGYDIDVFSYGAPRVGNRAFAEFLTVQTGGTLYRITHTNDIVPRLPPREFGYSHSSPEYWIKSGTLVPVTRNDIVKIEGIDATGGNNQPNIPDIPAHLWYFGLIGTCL
Description: Lipase storage stability in liquid formulations at 37° C. (pNP-valerate activity). The class given is biochemical, Thermomyces lanuginosa. The conditions noted are these: for lipase activity, 3 d: 3 d storage at 37° C.; for lipase activity, 7 d: 7 d storage at 37° C.; for lipase activity, 14 d: 14 d storage at 37° C.; for lipase activity, 21 d: 21 d storage at 37° C.; for lipase activity, 28 d: 28 d storage at 37° C.; for lipase activity, 35 d: 35 d storage at 37° C.; for lipase activity, T0: relative to 100% value of reference formulation at time 0. The procedure:
The storage stability of Lipase was assessed at 37° C.
Base test formulations were manufactured by making base formulations I to V by mixing the components according to Table 1.
The respective component (a) or comparative compound was added, if applicable, to the respective base formulation in amounts as indicated in Table 1.
Lipase used: Lipolase® 100L (CAS-No. 9001-62-1, EC-No. 232-619-9) was purchased from Sigma-Aldrich.
The amount of lipase as provided in Table 1 refers to active protein.
Water was added to accomplish the balance to 100.
Lipolase activity at certain points in time as indicated in Table 2 was be determined by employing pNitrophenol-valerate (2.4 mM pNP-C5 in 100 mM Tris pH 8.0, 0.01% Triton X100) as a substrate. The absorption at 405 nm was measured at 20° C. every 30 seconds over 5 minutes.
The slope (absorbance increase at 405 nm per minute) of the time dependent absorption-curve is directly proportional to the activity of the lipase.
The […] activity values provided in Table 2 were calculated referring to the 100% value determined in the reference formulation at the time 0.
The nomenclature of formulations is as follows: the Roman number before the full stop characterizes the base formulation, the Arabian number the type of compound (A.# compound according to invention (component (a)); (B.#) comparative compound).

Setting [1] is: base formulation II. (Lipolase 0.2 wt%, tested compound 2.5 wt%).
Setting [2] is: base formulation III. (Lipolase 0.2 wt%, tested compound 2.0 wt%).
Setting [3] is: base formulation IV. (Lipolase 0.2 wt%, tested compound 2.0 wt%).
Where [4] appears, read: base formulation V. (Lipolase 0.2 wt%, tested compound 2.0 wt%).
Where [5] appears, read: base formulation I. (Lipolase 0.2 wt%, tested compound 2.5 wt%).

As for `CCOC(=O)CC(O)(CC(=O)O)C(=O)O` (centres unmarked) [A.6, Monoethylcitrate], under setting [1], the “lipase activity, 3 d” value was 100%; the “lipase activity, 7 d” value is listed as 95%; the “lipase activity, 14 d” value is 91%; the “lipase activity, 21 d” value is on record as 84%. Besides, under setting [1], the “lipase activity, 28 d” value was 80%; the “lipase activity, 35 d” value worked out at 71%; the “lipase activity, T0” value is 102%. Also, under setting [2], the “lipase activity, 3 d” value is reported as 96%; the “lipase activity, 7 d” value was determined as 91%; the “lipase activity, 14 d” value is listed as 87%; the “lipase activity, 21 d” value is reported as 82%. For the same molecule, under setting [2], the “lipase activity, 28 d” value came out at 79%; the “lipase activity, 35 d” value was found to be 74%; the “lipase activity, T0” value is recorded as 96%. Besides, under setting [3], the “lipase activity, 3 d” value worked out at 96%; the “lipase activity, 7 d” value is recorded as 92%; the “lipase activity, 14 d” value was 89%; the “lipase activity, 21 d” value is given as 86%. Under setting [3], the “lipase activity, 28 d” value worked out at 85%; the “lipase activity, 35 d” value came out at 78%; the “lipase activity, T0” value came out at 98%.
`O=C(CC(O)(CC(=O)OCc1ccccc1)C(=O)OCc1ccccc1)OCc1ccccc1` [A.8, Tribenzylcitrate]: under setting [1], the “lipase activity, 3 d” value is listed as 94%; the “lipase activity, 7 d” value was found to be 90%; the “lipase activity, 14 d” value is listed as 87%; the “lipase activity, 21 d” value is 83%. Also, under setting [1], the “lipase activity, 28 d” value is recorded as 81%; the “lipase activity, 35 d” value is recorded as 77%; the “lipase activity, T0” value is on record as 97%. Under setting [4], the “lipase activity, 3 d” value worked out at 96%; the “lipase activity, 7 d” value is recorded as 93%; the “lipase activity, 14 d” value was 88%; the “lipase activity, 21 d” value came to 85%. In addition, under setting [4], the “lipase activity, 28 d” value is recorded as 82%; the “lipase activity, 35 d” value amounted to 77%; the “lipase activity, T0” value came out at 98%.
`O=C(O)CC(O)(CC(=O)O)C(=O)O` [B.1, citric acid, reference compound]: under setting [5], the “lipase activity, 3 d” value was found to be 89%; the “lipase activity, 7 d” value is on record as 81%; the “lipase activity, 14 d” value was 73%; the “lipase activity, 21 d” value is listed as 61%. Moreover, under setting [5], the “lipase activity, 28 d” value is given as 50%; the “lipase activity, 35 d” value is listed as 29%; the “lipase activity, T0” value was determined as 100%. Further, under setting [2], the “lipase activity, 3 d” value worked out at 92%; the “lipase activity, 7 d” value is recorded as 78%; the “lipase activity, 14 d” value is recorded as 70%; the “lipase activity, 21 d” value is given as 51%. Also, under setting [2], the “lipase activity, 28 d” value was 39%; the “lipase activity, 35 d” value was determined as 30%; the “lipase activity, T0” value was 102%. For the same molecule, under setting [3], the “lipase activity, 3 d” value is listed as 95%; the “lipase activity, 7 d” value stood at 82%; the “lipase activity, 14 d” value came to 70%; the “lipase activity, 21 d” value is on record as 58%. In addition, under setting [3], the “lipase activity, 28 d” value is listed as 43%; the “lipase activity, 35 d” value is 36%; the “lipase activity, T0” value was determined as 97%. Further, under setting [4], the “lipase activity, 3 d” value is recorded as 93%; the “lipase activity, 7 d” value was 86%; the “lipase activity, 14 d” value was 74%; the “lipase activity, 21 d” value came out at 63%. For the same molecule, under setting [4], the “lipase activity, 28 d” value amounted to 52%; the “lipase activity, 35 d” value was 43%; the “lipase activity, T0” value is on record as 98%.
In the case of `O=C([O-])CC(O)(CC(=O)[O-])C(=O)[O-].[Na+].[Na+].[Na+]` [B.2, citric acid trisodiumsalt, reference compound], under setting [5], the “lipase activity, 3 d” value was found to be 90%; the “lipase activity, 7 d” value is listed as 81%; the “lipase activity, 14 d” value is listed as 68%; the “lipase activity, 21 d” value is listed as 57%. Under setting [5], the “lipase activity, 28 d” value was 47%; the “lipase activity, 35 d” value stood at 31%; the “lipase activity, T0” value is 97%. Also, under setting [1], the “lipase activity, 3 d” value is 95%; the “lipase activity, 7 d” value is listed as 82%; the “lipase activity, 14 d” value came out at 63%; the “lipase activity, 21 d” value is 56%. In addition, under setting [1], the “lipase activity, 28 d” value turned out to be 41%; the “lipase activity, 35 d” value was determined as 34%; the “lipase activity, T0” value is listed as 98%. Further, under setting [2], the “lipase activity, 3 d” value is listed as 94%; the “lipase activity, 7 d” value is given as 80%; the “lipase activity, 14 d” value is 69%; the “lipase activity, 21 d” value is given as 53%. Under setting [2], the “lipase activity, 28 d” value stood at 44%; the “lipase activity, 35 d” value is on record as 37%; the “lipase activity, T0” value was 101%. Under setting [3], the “lipase activity, 3 d” value worked out at 90%; the “lipase activity, 7 d” value amounted to 81%; the “lipase activity, 14 d” value came out at 68%; the “lipase activity, 21 d” value was determined as 55%. For the same molecule, under setting [3], the “lipase activity, 28 d” value was 40%; the “lipase activity, 35 d” value was 34%; the “lipase activity, T0” value was 96%.
On to `CCOC(=O)C(=O)OCC` [B.3, diethyloxalate, reference compound], for which, under setting [5], the “lipase activity, 3 d” value amounted to 90%; the “lipase activity, 7 d” value is given as 80%; the “lipase activity, 14 d” value came out at 70%; the “lipase activity, 21 d” value was determined as 54%. Moreover, under setting [5], the “lipase activity, 28 d” value was determined as 45%; the “lipase activity, 35 d” value is 37%; the “lipase activity, T0” value came out at 97%. Further, under setting [2], the “lipase activity, 3 d” value turned out to be 94%; the “lipase activity, 7 d” value came out at 79%; the “lipase activity, 14 d” value is recorded as 69%; the “lipase activity, 21 d” value was 50%. In addition, under setting [2], the “lipase activity, 28 d” value was 40%; the “lipase activity, 35 d” value came to 32%; the “lipase activity, T0” value is recorded as 98%. Further, under setting [3], the “lipase activity, 3 d” value was found to be 93%; the “lipase activity, 7 d” value was found to be 86%; the “lipase activity, 14 d” value was 74%; the “lipase activity, 21 d” value is on record as 63%. For the same molecule, under setting [3], the “lipase activity, 28 d” value is on record as 51%; the “lipase activity, 35 d” value is recorded as 46%; the “lipase activity, T0” value is listed as 98%. Further, under setting [4], the “lipase activity, 3 d” value was determined as 92%; the “lipase activity, 7 d” value was found to be 85%; the “lipase activity, 14 d” value is 71%; the “lipase activity, 21 d” value is 65%. Besides, under setting [4], the “lipase activity, 28 d” value is on record as 56%; the “lipase activity, 35 d” value was determined as 46%; the “lipase activity, T0” value is on record as 97%.
